Reference: patent US12319666B2, “Hydrate of dimethylaminomicheliolide fumarate and preparation method therefor and use thereof” (priority 2020, dated 2025)

Legend:
[1] = background statement; cited from earlier work
[2] = cited from earlier work
[3] = Solubility in solvents (qualitative); format: physicochemical
[4] = Crystal particle size (scanning electron micrograph of crystal morphology); format: physicochemical; conditions: for average particle size: crystal product, SEM
Experimental: (§1) The crystal habit of the hydrate of dimethylaminomicheliolide fumarate is studied in the present disclosure, and a scanning electron micrograph thereof is shown in FIG. 3. —The crystal has a regular block crystal habit, and the surface of the particle is smooth without agglomeration, meanwhile, the crystal has a large average particle size that can reach 300 μm, a bulk density of 0.65 g/mL, and an angle of repose of 32°. The product features high bulk density and good fluidity. In comparison, the crystalline form A prepared using the natural cooling recrystallization method disclosed in patent CN103724307B has a primary particle size of 35.8 μm, a bulk density of mere 0.270 g/mL and an angle of repose of 62°, and a scanning electron micrograph thereof is shown in FIG. 4.

[5] = Angle of repose (fluidity); format: physicochemical; conditions: crystal product without auxiliary materials
Experimental: as §1
The hydrate of the present disclosure has good fluidity and is more suitable for being prepared as a medicament at a later stage. It is well known that the fluidity of an active ingredient per se is generally hard to meet the filling conditions of capsules or microcapsules, and auxiliary materials such as pregelatinized starch, silica and magnesium stearate are required to meet the requirements for fluidity by the filling conditions so as to achieve the desired quality of dosage forms and production efficiency. Taking the specification of 100 mg capsules as an example, if other forms such as crystalline form A are used as active ingredients, the weight of capsule contents reaches about 310 mg after auxiliary materials are added, and thus the largest 0 # capsule shell must be used, and larger specification such as capsules containing 200 mg of active ingredients cannot be prepared.

[6] = Bulk density of crystal product; format: physicochemical
Experimental: as §1

[7] = Stability of the hydrate at 45° C., humidity 75%, 30 days (XRD and purity analysis); format: physicochemical
Experimental: The stability of the hydrate of dimethylaminomicheliolide fumarate is investigated in the present disclosure. The […] crystal compound product is uniformly distributed in an open Petri dish. The temperature is controlled at 45° C., the humidity is 75%, and the sample thickness is less than 5 mm. The Petri dish is hermetically placed in a drier for 30 days. Then the samples placed for 7, 14 and 30 days were examined by XRD and compared with the results on day 0. […] Meanwhile, the samples at days 7, 14 and 30 are subjected to purity analysis. […] By combining the XRD patterns and the results of the purity analysis, the hydrate of dimethylaminomicheliolide fumarate is shown to have good stability.

SMILES	average particle size [4] [μm]	angle of repose [5] [°]	bulk density [6] [g/mL]	also measured
CC1=C2CC[C@@](C)(O)[C@@H]2[C@H]2OC(=O)[C@@H](CN(C)C)[C@@H]2CC1 [DMAMCL, dimethylaminomicheliolide]	–	–	–	solubility in water [1]: improved solubility in water to a certain degree relative to MCL; stability on long-term storage ([2]; background statement): unstable
CC1=C2CC[C@@](C)(O)[C@@H]2[C@H]2OC(=O)[C@@H](CN(C)C)[C@@H]2CC1.O=C(O)/C=C/C(=O)O [Dimethylaminomicheliolide fumarate]	–	–	–	solubility ([3]; in cyclohexane, n-hexane, n-heptane, dichloromethane, isopropyl ether and toluene): almost insoluble; solubility ([3]; in water, methanol, ethanol, tetrahydrofuran, 1,4-dioxane, acetone, acetonitrile and isopropyl acetate): soluble
CC1=C2CC[C@@](C)(O)[C@@H]2[C@H]2OC(=O)[C@@H](CN(C)C)[C@@H]2CC1.O=C(O)/C=C/C(=O)O [Example 1, hydrate of dimethylaminomicheliolide fumarate]	≤ 300	32.5	0.646	–
CC1=C2CC[C@@](C)(O)[C@@H]2[C@H]2OC(=O)[C@@H](CN(C)C)[C@@H]2CC1.O=C(O)/C=C/C(=O)O [Example 2, hydrate of dimethylaminomicheliolide fumarate]	≤ 300	32	0.655	–
CC1=C2CC[C@@](C)(O)[C@@H]2[C@H]2OC(=O)[C@@H](CN(C)C)[C@@H]2CC1.O=C(O)/C=C/C(=O)O [Example 3, hydrate of dimethylaminomicheliolide fumarate]	≤ 300	32	0.65	–
CC1=C2CC[C@@](C)(O)[C@@H]2[C@H]2OC(=O)[C@@H](CN(C)C)[C@@H]2CC1.O=C(O)/C=C/C(=O)O [Example 4, hydrate of dimethylaminomicheliolide fumarate]	≤ 300	32.2	0.659	–
CC1=C2CC[C@@](C)(O)[C@@H]2[C@H]2OC(=O)[C@@H](CN(C)C)[C@@H]2CC1.O=C(O)/C=C/C(=O)O [Example 5, hydrate of dimethylaminomicheliolide fumarate]	≤ 300	32	0.645	–
CC1=C2CC[C@@](C)(O)[C@@H]2[C@H]2OC(=O)[C@@H](CN(C)C)[C@@H]2CC1.O=C(O)/C=C/C(=O)O [Example 6, hydrate of dimethylaminomicheliolide fumarate]	≤ 300	32.3	0.65	–
CC1=C2CC[C@@](C)(O)[C@@H]2[C@H]2OC(=O)[C@@H](CN(C)C)[C@@H]2CC1.O=C(O)/C=C/C(=O)O [Example 7, hydrate of dimethylaminomicheliolide fumarate]	≤ 300	32	0.65	–
CC1=C2CC[C@@](C)(O)[C@@H]2[C@H]2OC(=O)[C@@H](CN(C)C)[C@@H]2CC1.O=C(O)/C=C/C(=O)O [Example 8, hydrate of dimethylaminomicheliolide fumarate]	≤ 300	32.1	0.654	–
CC1=C2CC[C@@](C)(O)[C@@H]2[C@H]2OC(=O)[C@@H](CN(C)C)[C@@H]2CC1.O=C(O)/C=C/C(=O)O [Example 9, hydrate of dimethylaminomicheliolide fumarate]	≤ 300	32.3	0.645	–
CC1=C2CC[C@@](C)(O)[C@@H]2[C@H]2OC(=O)[C@@H](CN(C)C)[C@@H]2CC1.O=C(O)/C=C/C(=O)O [crystalline form A, dimethylaminomicheliolide fumarate]	–	62	0.270	primary particle size ([4]; form A from natural cooling recrystallization, method of CN103724307B): 35.8 μm; stability of the crystalline form ([2]; prone to transformation): poor stability
CC1=C2CC[C@@](C)(O)[C@@H]2[C@H]2OC(=O)[C@@H](CN(C)C)[C@@H]2CC1.O=C(O)/C=C/C(=O)O [hydrate of dimethylaminomicheliolide fumarate]	≤ 300	32	0.65	angle of repose ([5]; listed as hydrate of dimethylaminomicheliolide fumarate in the crystalline form D): 32 °; change in purity vs day 0 ([7]; day 7): 0.015%; change in purity vs day 0 ([7]; day 14): 0.027%; change in purity vs day 0 ([7]; day 30): 0.046%; change in the XRD pattern ([7]; days 7, 14 and 30 vs day 0): no significant change
C=C1C(=O)O[C@H]2[C@H]1CCC(C)=C1CC[C@@](C)(O)[C@@H]12 [micheliolide]	–	–	–	solubility in water [1]: poor solubility in water
